Structures can show the parent of a compound that is named as a salt.
Molecular target: T1, Protein kinase C zeta type (Homo sapiens, UniProt Q05513)
T1 sequence (Q05513 whole entry): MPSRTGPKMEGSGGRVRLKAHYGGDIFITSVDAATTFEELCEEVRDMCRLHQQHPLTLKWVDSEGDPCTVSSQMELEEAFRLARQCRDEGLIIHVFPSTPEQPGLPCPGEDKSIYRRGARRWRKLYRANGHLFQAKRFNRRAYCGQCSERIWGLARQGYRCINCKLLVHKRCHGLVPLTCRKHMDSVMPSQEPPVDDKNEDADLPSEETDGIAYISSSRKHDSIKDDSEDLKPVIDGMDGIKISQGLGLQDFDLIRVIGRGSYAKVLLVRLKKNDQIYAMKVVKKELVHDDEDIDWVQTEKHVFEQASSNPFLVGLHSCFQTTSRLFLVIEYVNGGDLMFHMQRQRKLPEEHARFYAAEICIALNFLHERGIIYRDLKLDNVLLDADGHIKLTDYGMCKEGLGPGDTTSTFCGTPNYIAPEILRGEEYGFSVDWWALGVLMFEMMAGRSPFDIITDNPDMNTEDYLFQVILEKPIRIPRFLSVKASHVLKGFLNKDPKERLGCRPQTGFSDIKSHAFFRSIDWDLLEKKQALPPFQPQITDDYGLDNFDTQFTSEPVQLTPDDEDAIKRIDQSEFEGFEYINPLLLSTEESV
Assay: Inhibition of PKCzeta by TR-FRET based LanthaScreen assay

| IC50 [nM] | SMILES |
| --- | --- |
| 1210 | CC(C)C1(CC[C@@H](C)[C@H]2CC[C@@]3(C)[C@@H]4C[C@H](OS(=O)(=O)O)[C@H]5[C@@H](O)[C@H](OS(=O)(=O)O)[C@@H](OS(=O)(=O)O)C[C@]5(C)C4=CC[C@]23C)CC1C (some centres undefined) [TOPSENTIASTEROL SULFATE E] |
| 1590 | C=C(C)C(CC)CC[C@@H](C)[C@H]1CC[C@@]2(C)[C@@H]3C[C@H](OS(=O)(=O)O)[C@H]4[C@@H](O)[C@H](OS(=O)(=O)O)[C@@H](OS(=O)(=O)O)C[C@]4(C)C3=CC[C@]12C (some centres undefined) [SPHECIOSTEROL SULFATE A] |
| 530 | C=C(C)C(CC[C@@H](C)[C@H]1CC[C@@]2(C)[C@@H]3C[C@H](OS(=O)(=O)O)[C@H]4[C@@H](O)[C@H](OS(=O)(=O)O)[C@@H](OS(=O)(=O)O)C[C@]4(C)C3=CC[C@]12C)C(C)C (some centres undefined) [SPHECIOSTEROL SULFATE B] |
| 110 | C=C(C)C(C)(C)C(C)CC[C@@H](C)[C@H]1CC[C@@]2(C)[C@@H]3C[C@H](OS(=O)(=O)O)[C@H]4[C@@H](O)[C@H](OS(=O)(=O)O)[C@@H](OS(=O)(=O)O)C[C@]4(C)C3=CC[C@]12C (some centres undefined) [SPHECIOSTEROL SULFATE C] |

From ChEMBL document CHEMBL1155021, “Spheciosterol sulfates, PKCzeta inhibitors from a philippine sponge Spheciospongia sp” (J Nat Prod, 2008)
